Laboratory results: the supplement of paper PMC6045584
± gives the standard deviation of the averaged measurements.

Legend:
[1] = compound: COc1ccc(-c2cc3c(C)nc(N)nc3n([C@H]3CC[C@H](OCCO)CC3)c2=O)cn1; assay: surviving fraction relative to DMSO-only wells; higher = less growth inhibition; settings: exposure time: 5 days
Summary of the method: (§1)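 Viability values are CellTiter-Glo luminescence readings, given as surviving fraction against the median of DMSO-only wells. The readings were taken after 10 minutes at room temperature, following five days of continuous exposure to inhibitors at 0.5, 1, 5, 10, 50, 100, 500 and 1000 nM that began 24 hours after log-phase tumour cell lines were seeded at 250–500 cells per well in 384-well plates. Every line was screened three times and kept only if replicate Pearson r >0.7 and median Z' >0.3.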

[2] = compound: Cc1ccc(NC(=O)c2ccc(CN3CCN(C)CC3)cc2)cc1Nc1nccc(-c2cccnc2)n1 [IMATINIB]; assay: as above; settings: exposure time: 5 days
Summary of the method: as §1

Test System	surviving fraction ([1]; 0.5 nM)	surviving fraction ([1]; 1 nM)	surviving fraction ([1]; 5 nM)	surviving fraction ([1]; 10 nM)	surviving fraction ([1]; 50 nM)	surviving fraction ([1]; 100 nM)	surviving fraction ([1]; 500 nM)	surviving fraction ([1]; 1000 nM)	surviving fraction ([2]; 0.5 nM)	surviving fraction ([2]; 1 nM)	surviving fraction ([2]; 5 nM)	surviving fraction ([2]; 10 nM)	surviving fraction ([2]; 500 nM)	surviving fraction ([2]; 50 nM)	surviving fraction ([2]; 100 nM)	surviving fraction ([2]; 1000 nM)
22RV1 PROSTATE	1.03 ± 0.041	0.999 ± 0.072	0.876 ± 0.085	0.796 ± 0.021	0.516 ± 0.065	0.312 ± 0.043	0.106 ± 0.019	0.0857 ± 0.0063	1.06 ± 0.068	1.08 ± 0.019	1 ± 0.1	1.05 ± 0.046	1.14 ± 0.14			
93VU HEADNECK	0.94 ± 0.015	0.995 ± 0.14	0.923 ± 0.075	0.979 ± 0.044	0.582 ± 0.14	0.351 ± 0.068	0.0697 ± 0.0051	0.047 ± 0.0046	1.11 ± 0.14	1.13 ± 0.1	1.18 ± 0.019		1.29 ± 0.074	1.3 ± 0.099	1.25 ± 0.047	1.1 ± 0.079
143B BONE	0.995 ± 0.0057	0.992 ± 0.014	1.01 ± 0.039	0.966 ± 0.025	0.946 ± 0.011	0.896 ± 0.02	0.391 ± 0.016	0.267 ± 0.013	1.07 ± 0.022	1.1 ± 0.03		1.1 ± 0.013	1.15 ± 0.1	1.14 ± 0.043		1.14 ± 0.11
A549 LUNG	0.958 ± 0.049	0.939 ± 0.044	0.927 ± 0.026	0.936 ± 0.035	1.02 ± 0.032	0.886 ± 0.016	0.325 ± 0.024	0.158 ± 0.0036	1.09 ± 0.035	1.07 ± 0.026	1.11 ± 0.041	1.09 ± 0.041		1.11 ± 0.049	1.1 ± 0.033	1.12 ± 0.016
ASKA SYNOVIAL	0.923 ± 0.037	0.896 ± 0.064	0.878 ± 0.076	0.776 ± 0.054	0.462 ± 0.019	0.366 ± 0.025	0.187 ± 0.011	0.229 ± 0.026	1.1 ± 0.017	1.09 ± 0.03	1.23 ± 0.1	1.08 ± 0.095	1.21 ± 0.095		1.19 ± 0.1	1.07 ± 0.094
BT20 BREAST	1.13 ± 0.1	1.11 ± 0.097	1.12 ± 0.019	1.09 ± 0.063	1 ± 0.048	0.72 ± 0.037	0.216 ± 0.004	0.141 ± 0.021	1.21 ± 0.064	1.22 ± 0.12		1.16 ± 0.062	1.45 ± 0.19		1.14 ± 0.033	1.46 ± 0.035
BT549 BREAST	1.09 ± 0.18	1.02 ± 0.12	0.952 ± 0.095	0.939 ± 0.14	0.569 ± 0.085	0.381 ± 0.035	0.12 ± 0.013	0.0733 ± 0.0021	1.15 ± 0.1	1.13 ± 0.068		1.12 ± 0.044	1.21 ± 0.11		1.17 ± 0.04	1.1 ± 0.15
C33A CERVIX	0.778 ± 0.031	0.943 ± 0.09	0.789 ± 0.075	0.923 ± 0.073	0.614 ± 0.043	0.482 ± 0.012	0.156 ± 0.024	0.101 ± 0.018	0.921 ± 0.058	0.999 ± 0.073		1.09 ± 0.1	1.05 ± 0.022	1.15 ± 0.08		1.08 ± 0.045
CADOES1 SOFT TISSUE	0.956 ± 0.11	0.921 ± 0.061	0.911 ± 0.058	0.781 ± 0.045	0.633 ± 0.11	0.49 ± 0.025	0.193 ± 0.033	0.12 ± 0.0096	0.94 ± 0.11	0.897 ± 0.035	0.926 ± 0.08	0.872 ± 0.012	1.03 ± 0.085		0.948 ± 0.02	1.05 ± 0.14
CAL51 BREAST	0.988 ± 0.062	0.901 ± 0.047	0.943 ± 0.064	0.91 ± 0.053	0.731 ± 0.023	0.442 ± 0.035	0.123 ± 0.0027	0.0447 ± 0.0022	1.04 ± 0.096		1.08 ± 0.036	1.06 ± 0.055	1.1 ± 0.012	1.08 ± 0.024	1.06 ± 0.033	1.09 ± 0.054
CAL72 BONE	1.09 ± 0.055	1.06 ± 0.043	1.04 ± 0.043	1.05 ± 0.027	0.993 ± 0.038	0.805 ± 0.045	0.235 ± 0.014	0.214 ± 0.031	1.11 ± 0.14	1.09 ± 0.11	1.12 ± 0.065	1.07 ± 0.1	1.12 ± 0.14	1.15 ± 0.2		1.14 ± 0.087
CAL120 BREAST	0.942 ± 0.024	0.876 ± 0.034	0.9035 ± 0.0069	0.867 ± 0.025	0.674 ± 0.035	0.441 ± 0.019	0.113 ± 0.025	0.0817 ± 0.0065	0.995 ± 0.073	0.978 ± 0.041	0.994 ± 0.091		1.04 ± 0.044	1.03 ± 0.021	0.97 ± 0.045	0.992 ± 0.07
CASKI CERVIX	0.91 ± 0.034	0.901 ± 0.034	0.779 ± 0.05	0.922 ± 0.031	0.426 ± 0.022	0.147 ± 0.009	0.0347 ± 0.0047	0.338 ± 0.52	0.935 ± 0.028	0.9783 ± 0.0081	1.01 ± 0.048	0.962 ± 0.029	0.919 ± 0.037	1.06 ± 0.042	1.06 ± 0.06	1 ± 0.04
CHLA90 AUTONOMIC GANGLIA	1.05 ± 0.018	1 ± 0.061	0.951 ± 0.077	0.86 ± 0.04	0.753 ± 0.015	0.586 ± 0.045	0.206 ± 0.014	0.102 ± 0.0045	1 ± 0.022	1.02 ± 0.071	0.993 ± 0.063	0.98 ± 0.12		1.12 ± 0.084	1.02 ± 0.091	1.11 ± 0.079
CME SYNOVIAL	1.01 ± 0.027	1.09 ± 0.2	1.04 ± 0.042	1.12 ± 0.045	0.743 ± 0.083	0.681 ± 0.051	0.252 ± 0.022	0.28 ± 0.019	1.27 ± 0.17	1.4 ± 0.045	1.28 ± 0.03	1.24 ± 0.16	1.15 ± 0.047	1.22 ± 0.1	1.37 ± 0.042	1.14 ± 0.055
COLO320DM LARGE INTESTINE	1.07 ± 0.051	1.08 ± 0.08	0.994 ± 0.05	0.906 ± 0.029	0.5533 ± 0.0034	0.383 ± 0.037	0.215 ± 0.0076	0.18 ± 0.0044	1.1 ± 0.17	1.14 ± 0.052	1.08 ± 0.16	1.12 ± 0.11	1.15 ± 0.12	1.12 ± 0.12	1.14 ± 0.098	1.16 ± 0.039
DU4475 BREAST	0.752 ± 0.16	0.767 ± 0.18	0.667 ± 0.25	0.639 ± 0.24	0.412 ± 0.074	0.301 ± 0.057	0.0443 ± 0.021	0.0323 ± 0.006	1.04 ± 0.18	1.1 ± 0.028		1.11 ± 0.13	1.21 ± 0.049	1.09 ± 0.15		1.09 ± 0.1
